How the values were obtained:
[1] = target: T1, recombinant human proteasome β1 subunit (Homo sapiens, UniProt P28072); assay: Enzyme activity of recombinant proteasome catalytic β1 subunit (Z-LLE-AMC); format: biochemical; details: 50 μM Z-LLE-AMC, 2 h incubation
T1 construct: His-Tag; made in house; host or cells: Escherichia coli
T1 sequence (P28072 1-239): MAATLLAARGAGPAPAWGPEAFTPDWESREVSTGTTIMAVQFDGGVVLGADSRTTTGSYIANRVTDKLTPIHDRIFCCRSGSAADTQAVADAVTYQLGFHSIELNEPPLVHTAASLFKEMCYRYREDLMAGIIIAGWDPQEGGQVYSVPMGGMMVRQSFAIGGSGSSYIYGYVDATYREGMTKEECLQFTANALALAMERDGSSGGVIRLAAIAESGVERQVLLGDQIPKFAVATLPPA
Protocol: Briefly, catalytic activity of the recombinant human proteasome β1 subunit was assayed by adding recombinant β1 subunit protein (30 μg) to 100 μL of proteasome activity assay buffer (10 mM Tris-HCL, pH 7.8, 5 mM adenosine triphosphate, 0.5 mM dithiothreitol and 5 mM MgCL2•6H2O) containing 50 μM Z-LLE-AMC in the presence of fangchinoline or tetrandrine at different concentrations or not. The hydrolase activity of the proteasome catalytic β1 subunit could release the fluorogenic AMC component from substrate Z-LLE-AMC and the AMC release was measured after 2 h incubation using a Microplate Reader Bio-Rad 550 with excitation and emission wavelengths of 360 and 465 nm, respectively.

[2] = target: T1, recombinant human proteasome β1 subunit; assay: Surface plasmon resonance (Biacore) binding assay
Protocol: The recombinant human proteasome β1 subunit, product of PSMB6 gene, was expressed as His-Tag proteins using Escherichia coli, and then purified by affinity chromatography as reported in our previous study. The binding affinities of fangchinoline or tetrandrine to recombinant proteasome catalytic β1 subunit, were assayed in vitro using an Biacore 3000 instrument (Biacore AB, Rapsgatan 7, S-754 50 Uppsala, Sweden) as reported before. Briefly, recombinant proteasome β1 subunit protein was immobilized on a CM5 sensor chip as ligand in 11624.5 RU with N-ethyl-N’-(3-dimethylaminopropyl) carbodiimide and N-hydroxysuccinimide according to the standard primary amine-coupling procedures, and HBS-EP (10 mM HEPES, 150 mM NaCl, 3 mM EDTA, 0.005% (v/v) surfactant P20, pH 7.4) was used as the running buffer. Equilibration of the baseline was performed by a continuous flow of HBS-EP through the chip surface for 1 to 2 h. Biacore data were collected at 25°C with HBS-EP as the running buffer at a constant flow of 20 μL/min. Fangchinoline or tetradrine was serially diluted into the running buffer to 0, 2.4, 3.43, 4.90, 7.0, 10 and 20 μM. The samples were injected into the channels at a flow rate of 20 μL/min, followed by washing with the running buffer. The binding responses were recorded continuously in response units (RU) at a frequency of 1Hz as sensorgrams and presented as a function of time. The association (k a) and dissociation (k d) rate constants, the equilibrium dissociation constant ( KD=kd/ka ) were determined by analysis of the sensorgram-curves obtained at different concentrations of the compound by use of BIA evaluation software version 3.1 (Biacore) and the 1:1 Langmuir binding fitting model.

`COc1ccc2cc1Oc1ccc(cc1)C[C@H]1c3cc(c(OC)cc3CCN1C)Oc1c(OC)c(OC)cc3c1[C@H](C2)N(C)CC3` [tetrandrine, reference compound] was tested, and the “Inhibition of enzyme activity of recombinant proteasome β1 subunit” value [1] was “directly inhibit”, the “Dissociation (k d)” value ([2]; Biacore, 25°C, 1:1 Langmuir model) was 0.0162 S^-1 and the Kd ([2]; Biacore, 25°C, 1:1 Langmuir model, read-out: Equilibrium dissociation (K D)) was 5.61 µM. It also gave a kon ([2]; pH 7.4, read-out: Association (k a)) of 2890 M⁻¹ s⁻¹.

— article PMC4626104, “Inhibition on Proteasome β1 Subunit Might Contribute to the Anti-Cancer Effects of Fangchinoline in Human Prostate Cancer Cells” (PLoS ONE, 2015)
